Measurements published in the METLIN SMRT retention time set (Domingo-Almenara et al. 2019).

Assay: gradient 5% acetonitrile 3 min, to 50% in 2 min, to 85% in 15 min, held 3 min, 100 µL/min
Conditions: column: Zorbax Extend-C18 2.1 x 50 mm; eluents: water / acetonitrile, 0.1% formic acid
Summary of the method: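 Pure standards were analyzed in mixtures of ~100 molecules using HPLC coupled to a quadrupole time-of-flight mass spectrometer, in both positive and negative ionization mode. Separation used a Zorbax Extend-C18 column (2.1 × 50 mm, 1.8 μm) at 100 μL/min, with water and acetonitrile each containing 0.1% formic acid. Dead and dwell volumes were 40 μL and 900 μL, and data were collected over 3 months. Retention time was read from computationally picked adduct peaks, each inspected manually.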

Work on `O=C(Nc1cccc(C(F)(F)F)c1)N(Cc1ccsc1)C1CC1` yielded an RP-LC retention time of 1030 s.
With `CCC1CN2C=NC(N3CCN(C(=O)c4ccc(C)s4)CC3)=CC2=N1` (centres undefined) the RP-LC retention time was 632 s.
`COCCN1C(=O)CCc2cc(NC(=O)c3ccc(Cl)s3)ccc21` gave an RP-LC retention time of 958 s.
`O=C(COc1ccccc1)Nc1ccccc1-c1nc2ccccc2s1` showed an RP-LC retention time of 1320 s.
Compound `CCC(C)NC(=O)C1CCN(S(=O)(=O)c2c(C)[nH]c(C)c2C(=O)N2CCCCC2)CC1` (centres undefined) has an RP-LC retention time of 672 s.
With `CN(C(=O)Cn1ccn2nc(-c3ccccc3)c(CO)c2c1=O)c1ccccc1` the RP-LC retention time was 774 s.
For `O=C(Nc1ccc(Cl)cc1)C1CCN(S(=O)(=O)c2ccc(-c3noc(C4CC4)n3)cc2)CC1`, the RP-LC retention time was 1100 s.
Compound `CC(C)n1cnc2cc(CNC(=O)Cc3c[nH]c4ccccc34)ccc21` has an RP-LC retention time of 604 s.
For `CCN(CC)c1nc(C(=O)N2CCN(C(C)C)CC2)nc2nc(C)cc(C)c12`, the RP-LC retention time was 543 s.
`O=C1Nc2ccccc2SC1C(=O)N1CCC(C(=O)N2CCN(c3ccc(F)cc3)CC2)CC1` (centres undefined) showed an RP-LC retention time of 778 s.
`Cc1cccc(C)c1NC(=O)Cn1nc2nc(N3CCCC(C)C3)ccn2c1=O` (centres undefined) showed an RP-LC retention time of 787 s.
For `O=C(NC1CCN(c2ccccc2)C1=O)c1ccccc1C(F)(F)F` (centres undefined), the RP-LC retention time was 826 s.
`COc1cc(C(c2nnnn2C(C)(C)C)N2CCN(c3ccccn3)CC2)cc(OC)c1OC` (centres undefined) showed an RP-LC retention time of 578 s.
`COc1cccc(NC(=O)C2CCCN(S(=O)(=O)c3c[nH]c(C(=O)N4CCCCCC4)c3)C2)c1` (centres undefined) showed an RP-LC retention time of 882 s.
With `CCN(CC)c1ccc(C2=NNC(=O)CC2C)cc1[N+](=O)[O-]` (centres undefined) the RP-LC retention time was 773 s.
With `O=C(CCC(=O)N1Cc2cccn2-c2ccccc21)NCc1cccc(Cl)c1` the RP-LC retention time was 957 s.
Work on `COc1ccc(C2C(C(=O)N3CCOCC3)=C(C)NC3=C2C(=O)CCC3)cc1Br` (centres undefined) yielded an RP-LC retention time of 653 s.
With `COc1ccc(S(=O)(=O)N2CCN(c3cc(C)nc(N4CCOCC4)n3)CC2)cc1Cl` the RP-LC retention time was 692 s.
Work on `Cc1ccc(CNC(=O)c2ccc3c(c2)ncn3CCN2CCCC2)cc1` yielded an RP-LC retention time of 585 s.
Work on `Cn1cc(-c2ccccc2)cc1C(=O)O` yielded an RP-LC retention time of 842 s.
With `COc1cccc(-c2cn3ccn(-c4ccc(F)c(F)c4)c(=O)c3n2)c1` the RP-LC retention time was 844 s.
Work on `C=CCc1ccccc1OCC(O)CNC(C)C` (centres undefined) yielded an RP-LC retention time of 706 s.
`COC(=O)c1ccccc1NC(=O)CSc1cc(N2CCN(c3ccccc3OC)CC2)ncn1` showed an RP-LC retention time of 905 s.
Compound `CNC(=O)c1[nH]c2ccc(F)cc2c1N1CCCC1=O` has an RP-LC retention time of 658 s.
`CCOCC(=O)N1CCC(c2nc(CNC(=O)C3CCC3)cs2)CC1` gave an RP-LC retention time of 623 s.
Work on `O=C(NCC1CCOCC1)Nc1ccc(Cl)cc1` yielded an RP-LC retention time of 705 s.
For `COc1ccc(-c2ncc3c(n2)CCN(C(=O)Cc2ccc(OC)cc2Cl)C3)cc1`, the RP-LC retention time was 987 s.
With `CCS(=O)(=O)c1ccc(-c2ccc(NS(=O)(=O)c3ccc(Cl)s3)cc2)nn1` the RP-LC retention time was 810 s.
For `COc1cccc(CNC(=O)CN2CCN(Cc3ccc(F)cc3Cl)C2=O)c1`, the RP-LC retention time was 844 s.
Compound `COc1ccc(NC(=O)Nc2nccn(-c3ccccc3)c2=O)cc1OC` has an RP-LC retention time of 784 s.
Compound `NC(=O)Cn1c(CNC(=O)c2ccccc2)nc2ccccc21` has an RP-LC retention time of 573 s.
In the case of `Cc1ccccc1-c1noc(-c2cccnc2N2CCN(c3ccccc3)CC2)n1`, the RP-LC retention time is reported as 1410 s.
Compound `CC(=O)N1CCN(Cc2nc(-c3ccc(N4CCCC(C)C4)nc3)no2)CC1` (centres undefined) has an RP-LC retention time of 669 s.
`CCc1noc(-c2nc(-c3ccccc3OC)no2)n1` showed an RP-LC retention time of 986 s.
`Cc1ccc(Nc2c(-c3ccc(N(C)C)cc3)nc3ccc(C)cn23)cc1` gave an RP-LC retention time of 839 s.
Work on `O=C(Cn1nc(-n2cccn2)ccc1=O)Nc1cc(C(F)(F)F)ccc1Cl` yielded an RP-LC retention time of 730 s.
For `CCc1nc2cccnc2n1-c1ccc(C(=O)NC)cc1`, the RP-LC retention time was 659 s.
For `CCOC(=O)c1cccc(NC(=O)Cn2c(=O)c(CCC(=O)NC)nc3ccccc32)c1`, the RP-LC retention time was 741 s.
Work on `Cc1ccccc1-c1nc2cnccn2c1NCCC(=O)NCc1cc(F)cc(F)c1` yielded an RP-LC retention time of 693 s.
`O=C(Cc1csc2nc(-c3ccccc3)cn12)Nc1ccc(Br)cc1F` gave an RP-LC retention time of 883 s.
In the case of `CC(C)(C)c1ccc(S(=O)(=O)N2CCCC2c2nc(-c3ccc(F)cc3)no2)cc1` (centres undefined), the RP-LC retention time is reported as 1310 s.
`O=C(Nc1ccc(F)c(F)c1)c1c(O)c2cccnc2n(Cc2ccccc2)c1=O` showed an RP-LC retention time of 1140 s.
Compound `O=S(=O)(Nc1ccc(F)cc1)c1cccnc1Nc1ccc(F)cc1` has an RP-LC retention time of 1060 s.
For `Cc1ccc(CN2CCC[C@H]2c2nc(C3CCOCC3)n[nH]2)c(C)c1`, the RP-LC retention time was 590 s.
Work on `NC(=O)c1ccc2c(c1)CCCN2S(=O)(=O)c1ccccc1` yielded an RP-LC retention time of 726 s.
`CC(C)(C)C(=O)Nc1cnc(N2CCCCCC2)nc1` gave an RP-LC retention time of 817 s.
`CCCCC(=O)N1CCN(c2nc3ccccc3n(CC(C)C)c2=O)CC1` gave an RP-LC retention time of 1110 s.
Compound `C#CCC(Cc1cnc2nc(N)nc(N)c2n1)c1ccc(C(=O)N[C@@H](CCC(=O)O)C(=O)O)cc1` (some centres undefined) has an RP-LC retention time of 619 s.
Work on `Cc1nnc2c(=O)n(CC(=O)NC(C)c3ccccc3)c3cccnc3n12` (centres undefined) yielded an RP-LC retention time of 988 s.
Work on `CCOc1ccccc1N1CCN(S(=O)(=O)c2nn(C)cc2C(=O)NCCC(C)C)CC1` yielded an RP-LC retention time of 1080 s.
`O=C(Cn1cccc1-c1nc(-c2ccc(Cl)cc2)cs1)N1CCCC1` gave an RP-LC retention time of 1130 s.
Work on `CCc1nc(-c2csc(S(=O)(=O)N3CCCC(C(=O)Nc4cccc(F)c4)C3)c2)no1` (centres undefined) yielded an RP-LC retention time of 1070 s.
For `O=C(Nc1ccc(F)cc1)c1csc(-c2ccc(N3CCCC3)nc2)n1`, the RP-LC retention time was 743 s.
Work on `COc1ccc(CNC(=O)N(Cc2ccsc2)C2CC2)cc1OC` yielded an RP-LC retention time of 769 s.
Compound `CC(C)n1cnc(S(=O)(=O)N2CCC(C(=O)N3CCN(c4ccccc4)CC3)CC2)c1` has an RP-LC retention time of 754 s.
For `Cc1c(C(=O)C(=O)NCCc2ccccc2)c2ccccc2n1C`, the RP-LC retention time was 887 s.
With `Cn1cc(CCNS(=O)(=O)c2ccc(F)cc2Cl)c2cccnc21` the RP-LC retention time was 755 s.
Compound `Cc1cc(C)cc(-c2nc(C3CC(=O)N(c4ccc(Cl)cc4)C3)no2)c1` (centres undefined) has an RP-LC retention time of 1200 s.
For `CC(NC(=O)C1CCN(c2cnc(N3CCCC3)nc2)CC1)c1ccc(F)cc1` (centres undefined), the RP-LC retention time was 699 s.
Compound `Cc1ccc(NC(=O)N2CCC3(CC2)NC(=O)c2ccccc2O3)cc1` has an RP-LC retention time of 762 s.
For `COCCNC(=O)C1CCN(C(=O)c2ncn3c2COC(c2ccc(F)cc2)C3)CC1` (centres undefined), the RP-LC retention time was 645 s.
`CC(C)c1ccc(-c2noc(N3CCC(C(=O)NCCN4CCCC4)CC3)n2)cc1` gave an RP-LC retention time of 730 s.
For `COc1cccc2cc(-c3nnc(NC(=O)c4ccc([N+](=O)[O-])s4)o3)oc12`, the RP-LC retention time was 965 s.
In the case of `COC(=O)c1c(NCc2c(C)noc2C)c2cccc(Cl)c2[nH]c1=O`, the RP-LC retention time is reported as 706 s.
`CCOc1cc(Nc2ccc(NC(=O)c3ccco3)cc2)nc(C)n1` gave an RP-LC retention time of 591 s.
Work on `O=C(Nc1ccc2c(c1)OCCO2)N1CCCC(c2nn[nH]n2)C1` (centres undefined) yielded an RP-LC retention time of 634 s.
For `CC(C(=O)NCCN(C)Cc1ccccc1)n1c(=O)c(C(F)(F)F)nc2ccccc21` (centres undefined), the RP-LC retention time was 735 s.
Work on `c1ccc(CNc2nc(NCc3ccccc3)c3ccccc3n2)cc1` yielded an RP-LC retention time of 796 s.
For `CCN(c1cccc(C)c1)S(=O)(=O)c1cc2n(c1)CCCN(C)C2=O`, the RP-LC retention time was 783 s.
`CC(C)S(=O)(=O)c1cc2c(cc1NC(=O)c1ccccc1F)n(C)c(=O)n2C` gave an RP-LC retention time of 799 s.
With `CCn1cc(C)c(C(=O)O)c1CC(=O)NCc1cccs1` the RP-LC retention time was 733 s.
Work on `COc1ccc(-n2ccc(=O)c(-c3nc(-c4ccccc4Cl)no3)n2)cc1` yielded an RP-LC retention time of 877 s.
With `CS(=O)(=O)N1CCC(CC(=O)NC2CCCCC2)C1` (centres undefined) the RP-LC retention time was 668 s.
Compound `O=S(=O)(Nc1cccc(-c2cn3cccnc3n2)c1)c1ccc(Br)cc1` has an RP-LC retention time of 769 s.
Work on `CN(C)S(=O)(=O)c1ccc(-c2nnc(NC(=O)c3ccc4ncsc4c3)o2)cc1` yielded an RP-LC retention time of 669 s.
Work on `C=CCNC(=O)CCc1c(-c2ccc(Br)cc2)nc2ccccn12` yielded an RP-LC retention time of 622 s.
`Cc1nc(-c2noc(-c3ccccc3)n2)cn1CC(=O)Nc1ccc2c(c1)OCO2` gave an RP-LC retention time of 803 s.
Work on `CCc1cccc(NC(=O)CCc2c(C)nc3nc(-c4cc(OC)cc(OC)c4)nn3c2C)c1` yielded an RP-LC retention time of 970 s.
`O=C(Cn1ncc2c(N3CCN(c4ccccn4)CC3)ncnc21)Nc1ccc(Br)cc1` showed an RP-LC retention time of 652 s.
In the case of `O=C(Cn1cccc(-c2nc(-c3ccc(Br)cc3)no2)c1=O)NC1CCCC1`, the RP-LC retention time is reported as 896 s.
Work on `Cc1ccc(N2CC(c3nc(-c4cccc(-c5ccnn5C)c4)no3)CC2=O)cc1C` (centres undefined) yielded an RP-LC retention time of 1010 s.
`CC(=O)Nc1ccc(C2(C(=O)NCc3cccs3)CCC2)cc1` showed an RP-LC retention time of 710 s.
`CN(C)N1C(=O)c2c(Cl)c(Cl)c(Cl)c(Cl)c2C1=O` showed an RP-LC retention time of 1080 s.
In the case of `Cc1ccc(-c2nc3n(CC(=O)NCC4CCCO4)c4c(c(=O)n3n2)CCC4)cc1` (centres undefined), the RP-LC retention time is reported as 720 s.
`Cc1ccc(NC(=O)Cn2cnc3c(sc4nc(-c5ccccc5)ccc43)c2=O)cc1Cl` gave an RP-LC retention time of 1120 s.
Compound `CC1CCN(S(=O)(=O)N2CCC(C(=O)N3CCC(Cc4nncn4C(C)C)CC3)CC2)CC1` has an RP-LC retention time of 720 s.
`CC1(C(=O)NC2CCCCCC2)CN(S(C)(=O)=O)CC(=O)N1Cc1cccc(F)c1` (centres undefined) gave an RP-LC retention time of 885 s.
With `CO[C@@H]1[C@H](OC(=O)/C=C/C=C/C=C/C=C/C(=O)O)CC[C@]2(CO2)[C@H]1[C@@]1(C)O[C@@H]1CC=C(C)C` the RP-LC retention time was 954 s.
Compound `COc1cc(NC(=O)N2CCC(n3cnc4cccnc43)CC2)cc(OC)c1` has an RP-LC retention time of 638 s.
